Results published in patent publication US4272437A, “Antibacterial agents, and 4-thio azetidinone intermediates” (priority 1979, dated 1981).
In brackets after ≈: the same amount, converted by molar mass. Like-named read-outs stand apart in the source and are kept apart here.

Columns and labels:
Str. pneumoniae A-9585 = assay: MIC, tube dilution, Streptococcus pneumoniae A9585; assay type: cell-based; details: Streptococcus pneumoniae, A9585, Str. pneumoniae A9585; overnight 37° C., Nutrient Broth; read-out: Minimum Inhibitory Concentration (M.I.C.)
Description: (§1) Representative compounds of the present invention were subjected to in vitro antibiotic screening against a variety of microorganisms.

Str. pyogenes A-9604 = assay: MIC, tube dilution, Streptococcus pyogenes A9604; assay type: cell-based; details: Streptococcus pyogenes, A9604, Str. pyogenes A9604; overnight 37° C., Nutrient Broth; read-out: Minimum Inhibitory Concentration (M.I.C.)
Description: as §1

Staph. aureus A-9537 = assay: MIC, tube dilution, Staphylococcus aureus A9537; assay type: cell-based; details: Staphylococcus aureus, A9537, Staph. aureus A9537; overnight 37° C., Nutrient Broth; read-out: Minimum Inhibitory Concentration (M.I.C.)
Description: as §1

[1] = system: Staph. aureus A-9537 and 50% serum; assay: MIC, tube dilution, Staph. aureus A9537 + 50% serum; assay type: cell-based, Staphylococcus aureus; details: Staphylococcus aureus, overnight 37° C., read-out: Minimum Inhibitory Concentration (M.I.C.)
Description: as §1

[2] = system: Staph. aureus (Pen-Res) A-9606; assay: MIC, tube dilution, Staphylococcus aureus A9606 (Pen-Res); assay type: cell-based; details: Staphylococcus aureus, Staph. aureus A9606 (Pen-Res); overnight 37° C.; read-out: Minimum Inhibitory Concentration (M.I.C.)
Description: as §1

Str. faecalis A-20688 = assay: MIC, tube dilution, Streptococcus faecalis A20688; assay type: cell-based; details: Enterococcus faecalis, A20688, Str. faecalis A20688; overnight 37° C.; read-out: Minimum Inhibitory Concentration (M.I.C.)
Description: as §1

E. coli A-15119 = assay: MIC, tube dilution, Escherichia coli A15119; assay type: cell-based; details: overnight 37° C.; for MIC: Escherichia coli, A15119, E. coli A15119, read-out: Minimum Inhibitory Concentration (M.I.C.)
Description: as §1

E. coli A-20341-1 = assay: MIC, tube dilution, Escherichia coli A20341-1; assay type: cell-based
Description: as §1

K. pneumoniae A-15130 = assay: MIC, tube dilution, Klebsiella pneumoniae A15130; assay type: cell-based; details: overnight 37° C.; for MIC: Klebsiella pneumoniae, A15130, K. pneumoniae A15130, read-out: Minimum Inhibitory Concentration (M.I.C.)
Description: as §1

[3] = system: Klebsiella species A20468; assay: MIC, tube dilution, Klebsiella species A20468; assay type: cell-based; details: Klebsiella species (K. pneumoniae) A20468; overnight 37° C.; read-out: Minimum Inhibitory Concentration (M.I.C.)
Description: as §1

Pr. mirabilis A-9900 = assay: MIC, tube dilution, Proteus mirabilis A9900; assay type: cell-based; details: Proteus mirabilis, A9900, Proteus mirabilis A9900; overnight 37° C.; read-out: Minimum Inhibitory Concentration (M.I.C.)
Description: as §1

Pr. morganii A-15153 = assay: MIC, tube dilution, Proteus morganii A15153; assay type: cell-based; details: Morganella morganii, A15153, Proteus morganii A15153; overnight 37° C.; read-out: Minimum Inhibitory Concentration (M.I.C.)
Description: as §1

Ser. marcescens A-20019 = assay: MIC, tube dilution, Serratia marcescens A20019; assay type: cell-based; details: Serratia marcescens, A20019, Serratia marcescens A20019; overnight 37° C.; read-out: Minimum Inhibitory Concentration (M.I.C.)
Description: as §1

Ent. cloacae A-9659 = assay: MIC, tube dilution, Enterobacter cloacae A9659; assay type: cell-based; details: overnight 37° C.; for Minimum Inhibitory Concentration (M.I.C.): Enterobacter cloacae A9659; for MIC: Enterobacter cloacae, A9659, Enterobacter cloacae A9659, read-out: Minimum Inhibitory Concentration (M.I.C.)
Description: as §1

Ent. cloacae A-9656 = assay: MIC, tube dilution, Enterobacter cloacae A9656; assay type: cell-based; details: overnight 37° C.; for MIC: read-out: Minimum Inhibitory Concentration (M.I.C.)
Description: as §1

Ps. aeruginosa A-9843A = assay: MIC, tube dilution, Pseudomonas aeruginosa A9843A; assay type: cell-based; details: overnight 37° C.; for MIC: Pseudomonas aeruginosa, A9843A, read-out: Minimum Inhibitory Concentration (M.I.C.), Pseudomonas aeruginosa A9843A
Description: as §1

Ps. aeruginosa A-21213 = assay: MIC, tube dilution, Pseudomonas aeruginosa A21213; assay type: cell-based; details: overnight 37° C.; for MIC: read-out: Minimum Inhibitory Concentration (M.I.C.)
Description: as §1

Proteus rettgeri A21203 = assay: MIC, tube dilution, Proteus rettgeri A21203; assay type: cell-based; details: Providencia rettgeri, A21203, Proteus rettgeri A21203; overnight 37° C.; read-out: Minimum Inhibitory Concentration (M.I.C.)
Description: as §1

Proteus vulgaris A21559 = assay: MIC, tube dilution, Proteus vulgaris A21559; assay type: cell-based; details: Proteus vulgaris, A21559, Proteus vulgaris A21559; overnight 37° C.; read-out: Minimum Inhibitory Concentration (M.I.C.)
Description: as §1

S. aureus A9537 = assay: In vivo protection of mice, lethal infection with S. aureus A9537; details: Staphylococcus aureus, A9537, im, IM, 2 treatments, read-out: PD50
Experimental: Representative compounds of the present invention were also tested in vivo in mice and their PD50 (dose of compound in mg/kg required to protect 50% of the treated mice against an otherwise lethal infection of a micro-organism) values determined with respect to the test organisms shown below.

[4] = Mouse blood levels after intramuscular administration; assay type: in vivo; details: average of 6 mice, read-out: Mouse blood level; for concentration at 10 min: 10 minutes after IM 40 mg/kg; for concentration at 20 min: 20 minutes after IM 40 mg/kg; for concentration at 0.5 h: 30 minutes after IM 40 mg/kg; for concentration at 0.75 h: 45 minutes after IM 40 mg/kg
Experimental: Mouse blood levels after intramuscular administration of representative compounds of the present invention were determined and are reported in the table below.

[5] = system: Staph. aureus (Meth-Res) A-15097; assay: MIC, tube dilution, Staphylococcus aureus A15097 (Meth-Res); assay type: cell-based; details: overnight 37° C.
Description: as §1

[6] = Escherichia coli, A203411, E. coli A20341-1; overnight 37° C.; read-out: Minimum Inhibitory Concentration (M.I.C.)
[7] = Pseudomonas aeruginosa, A21213, Pseudomonas aeruginosa A21213

SMILES | MIC (Str. pneumoniae A-9585) | MIC (Str. pyogenes A-9604) | MIC (Staph. aureus A-9537) | MIC [1] | MIC [2] | MIC (Str. faecalis A-20688) | MIC (E. coli A-15119) | MIC (E. coli A-20341-1; [6]) | MIC (K. pneumoniae A-15130) | MIC [3] | MIC (Pr. mirabilis A-9900) | MIC (Pr. morganii A-15153) | MIC (Ser. marcescens A-20019) | Minimum Inhibitory Concentration (M.I.C.) (Ent. cloacae A-9659) | MIC (Ent. cloacae A-9659) | MIC (Ps. aeruginosa A-9843A) | MIC (Ps. aeruginosa A-21213; [7]) | MIC (Proteus rettgeri A21203) | MIC (Proteus vulgaris A21559) | concentration at 10 min [4] | also measured
C[C@@H](O)[C@H]1C(=O)N2C(C(=O)O)=C([C@H]3C[C@H](N)C3)S[C@H]12 (relative stereo) [Example 65, (1"R,5R,6S and 1'S,5S,6R)-2-(trans-3'-Amino-1'-cyclobutyl)-6-(1"-hydroxy-1"-ethyl)penem-3-carboxylic Acid (isomer B)] | 0.004 µg/mL (≈ 0.0141 µM) | 0.004 µg/mL (≈ 0.0141 µM) | 0.008 µg/mL (≈ 0.0281 µM) | 0.06 µg/mL | 0.06 µg/mL (≈ 0.211 µM) | 0.5 µg/mL (≈ 1.76 µM) | 0.13 µg/mL (≈ 0.457 µM) | < 0.25 µg/mL | < 0.25 µg/mL | 0.5 µg/mL (≈ 1.76 µM) | < 0.25 µg/mL | 1 µg/mL (≈ 3.52 µM) | 0.5 µg/mL (≈ 1.76 µM) | 2 µg/mL | 4 µg/mL (≈ 14.1 µM) | 16 µg/mL (≈ 56.3 µM) | 125 µg/mL (≈ 440 µM) | < 0.25 µg/mL | < 0.25 µg/mL | 44700 ng/mL | MIC (Ent. cloacae A-9656; Enterobacter cloacae, A9656, Enterobacter cloacae A9656): 0.5 µg/mL (≈ 1.76 µM); Minimum Inhibitory Concentration (M.I.C.) (Ps. aeruginosa A-21213; Pseudomonas aeruginosa A21213): 63 µg/mL; ED50 (S. aureus A9537; 7.8 × 10^5 organisms): 0.12 mg/kg; concentration at 20 min [4]: 34400 ng/mL; concentration at 0.5 h [4]: 23700 ng/mL; concentration at 0.75 h [4]: 17600 ng/mL; concentration at 1 h ([4]; 60 minutes after IM 40 mg/kg): 9800 ng/mL; concentration at 1.5 h ([4]; 90 minutes after IM 40 mg/kg): 3600 ng/mL; concentration at 2 h ([4]; 120 minutes after IM 40 mg/kg): 1000 ng/mL
NCCCCCC1=C(C(=O)O)N2C(=O)C[C@H]2S1 [Example 87, 2-(5-Aminopentyl)-penem-3-carboxylic acid] | 0.008 µg/mL (≈ 0.0312 µM) | 0.008 µg/mL (≈ 0.0312 µM) | 0.016 µg/mL (≈ 0.0624 µM) | 0.13 µg/mL | 4 µg/mL (≈ 15.6 µM) | 8 µg/mL (≈ 31.2 µM) |  | 16 µg/mL (≈ 62.4 µM) |  | > 125 µg/mL | 4 µg/mL (≈ 15.6 µM) | 4 µg/mL (≈ 15.6 µM) | 2 µg/mL (≈ 7.8 µM) | 16 µg/mL |  |  | > 125 µg/mL | 4 µg/mL (≈ 15.6 µM) | 16 µg/mL (≈ 62.4 µM) | 50300 ng/mL | Minimum Inhibitory Concentration (M.I.C.) ([5]; Staph. aureus A15097 (Meth-Res)): 32 µg/mL; Minimum Inhibitory Concentration (M.I.C.) (E. coli A-15119; E. coli A15119): 4 µg/mL; Minimum Inhibitory Concentration (M.I.C.) (K. pneumoniae A-15130; K. pneumoniae A15130): 8 µg/mL; Minimum Inhibitory Concentration (M.I.C.) (Ent. cloacae A-9656; Enterobacter cloacae A9656): 8 µg/mL; Minimum Inhibitory Concentration (M.I.C.) (Ps. aeruginosa A-9843A; Pseudomonas aeruginosa A9843A): 32 µg/mL; ED50 (S. aureus A9537; 1 × 10^6 organisms): 0.12 mg/kg; concentration at 20 min [4]: 47300 ng/mL; concentration at 0.5 h [4]: 34600 ng/mL; concentration at 0.75 h [4]: 23300 ng/mL
CC1(C)OCC(C(N)C2=C(C(=O)O)N3C(=O)CC3S2)O1 [Example 84, (1'R,2'R,5R and 1'S,2'S,5S),(1'R,2'R,5S and 1'S,2'S,5R), (1'R,2'S,5S and 1'S,2'R,5R), (1'R,2'S,5R and 1'S,2'R,5S) 2-(1'-Amino-2,3-dihydroxy-2,3-acetonylpropyl)-penem-3-carboxylic Acid] | 1 µg/mL (≈ 3.33 µM) | 1 µg/mL (≈ 3.33 µM) | 4 µg/mL (≈ 13.3 µM) | 32 µg/mL | 16 µg/mL (≈ 53.3 µM) | > 125 µg/mL | 16 µg/mL (≈ 53.3 µM) |  | 125 µg/mL (≈ 416 µM) | > 125 µg/mL | 8 µg/mL (≈ 26.6 µM) | 16 µg/mL (≈ 53.3 µM) | 63 µg/mL (≈ 210 µM) |  | 125 µg/mL (≈ 416 µM) | > 125 µg/mL |  | 32 µg/mL (≈ 107 µM) | 63 µg/mL (≈ 210 µM) |  | MIC ([5]; Staphylococcus aureus, read-out: Minimum Inhibitory Concentration (M.I.C.), Staph. aureus A15097 (Meth-Res)): > 125 µg/mL; MIC (E. coli A-20341-1; Escherichia coli, A203411; E. coli A20341-1; overnight 37° C.; read-out: Minimum Inhibitory Concentration (M.I.C.)): > 125 µg/mL; MIC (Ent. cloacae A-9656; Enterobacter cloacae A9656): 125 µg/mL (≈ 416 µM); MIC (Ps. aeruginosa A-21213; Pseudomonas aeruginosa A21213): > 125 µg/mL; ED50 (S. aureus A9537; 1 × 10^6 organisms): 33 mg/kg
